Test results taken from the supplement of paper PMC10307832.

Experiments:
Assay in all cases: relative viability (nuclei count vs DMSO), 5 days (fraction); higher = more cells survive
[1] = compound: CC[C@H](C)N1C=C(C2=C(C=C(C=C21)C3=CN=C(C=C3)N4CCNCC4)C(=O)NCC5=C(C=C(NC5=O)C)C)C [GSK126] + NC(=O)Nc1cc(-c2cccc(F)c2)sc1C(=O)N[C@H]1CCCNC1 [AZD7762] (partner 0.2 µM)
Method in brief: (§1)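 Relative viability divides the nuclei count in treated wells by that in vehicle wells. Lung cancer cell lines were seeded in 1536-well plates, dosed by pin tool the next day, and fixed and stained after 5 days in one step with final 0.05% Triton X-100, 1% formaldehyde and 1 ug/ml Hoechst. Dosing was a single drug or a fixed anchor-drug dose plus five library-drug doses (not always all listed) in √10 steps, and values are medians of duplicate plates imaged at 4×.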

[2] = compound: CC[C@H](C)N1C=C(C2=C(C=C(C=C21)C3=CN=C(C=C3)N4CCNCC4)C(=O)NCC5=C(C=C(NC5=O)C)C)C [GSK126] + Cc1nc(Nc2ncc(C(=O)Nc3c(C)cccc3Cl)s2)cc(N2CCN(CCO)CC2)n1 [Dasatinib] (partner 0.075 µM)
Method in brief: as §1

[3] = compound: C1CC(C1)(C(=O)O)C(=O)O.[NH2-].[NH2-].[Pt+2] [Carboplatin] + O=C(c1cc(Cc2n[nH]c(=O)c3ccccc23)ccc1F)N1CCN(C(=O)C2CC2)CC1 [Olaparib] (partner 8 µM)
Method in brief: as §1

[4] = compound: CC[C@H](C)N1C=C(C2=C(C=C(C=C21)C3=CN=C(C=C3)N4CCNCC4)C(=O)NCC5=C(C=C(NC5=O)C)C)C [GSK126] + CS(=O)(=O)N1CCN(Cc2cc3nc(-c4cccc5[nH]ncc45)nc(N4CCOCC4)c3s2)CC1 [Pictilisib] (partner 1 µM)
Method in brief: as §1

Cell Line | relative viability ([1]; first compound 0.08 µM) | relative viability ([1]; first compound 0.253 µM) | relative viability ([1]; first compound 0.8 µM) | relative viability ([1]; first compound 2.53 µM) | relative viability ([1]; first compound 8 µM) | relative viability ([2]; first compound 0.08 µM) | relative viability ([2]; first compound 0.253 µM) | relative viability ([2]; first compound 0.8 µM) | relative viability ([2]; first compound 2.53 µM) | relative viability ([2]; first compound 8 µM) | relative viability ([3]; first compound 0.08 µM) | relative viability ([3]; first compound 0.253 µM) | relative viability ([3]; first compound 0.8 µM) | relative viability ([3]; first compound 2.53 µM) | relative viability ([3]; first compound 8 µM) | relative viability ([4]; first compound 0.08 µM) | relative viability ([4]; first compound 0.253 µM) | relative viability ([4]; first compound 0.8 µM) | relative viability ([4]; first compound 2.53 µM) | relative viability ([4]; first compound 8 µM)
NCI-H838 | 1.1 | 0.932 | 0.873 | 0.916 | 0.857 | 0.344 | 0.308 | 0.313 | 0.266 | 0.209 | 0.773 | 0.746 | 0.757 | 0.683 | 0.575 | 0.507 | 0.35 | 0.403 | 0.426 | 0.369
NCI-H1355 | 0.814 | 0.658 | 0.688 | 0.746 | 0.479 | 0.842 | 0.733 | 0.705 | 0.842 | 0.727 | 0.808 | 0.734 | 0.677 | 0.694 | 0.595 | 0.476 | 0.531 | 0.447 | 0.499 | 0.447
NCI-H1395 | 0.392 | 0.381 | 0.399 | 0.399 | 0.342 | 0.464 | 0.439 | 0.406 | 0.399 | 0.427 | 0.509 | 0.467 | 0.505 | 0.41 | 0.46 | 0.653 | 0.653 | 0.798 | 0.699 | 0.726
NCI-H1437 | 1.19 | 1.06 | 1.05 | 1.1 | 0.966 | 0.392 | 0.368 | 0.416 | 0.441 | 0.349 | 0.646 | 0.675 | 0.578 | 0.623 | 0.594 | 0.44 | 0.504 | 0.406 | 0.455 | 0.405
NCI-H1651 | 0.534 | 0.416 | 0.467 | 0.537 | 0.364 | 0.534 | 0.427 | 0.363 | 0.443 | 0.45 | 0.191 | 0.199 | 0.185 | 0.166 | 0.161 | 0.55 | 0.548 | 0.601 | 0.608 | 0.584
NCI-H1666 | 0.861 | 0.8 | 0.82 | 0.936 | 0.813 | 0.675 | 0.586 | 0.579 | 0.616 | 0.656 | 0.741 | 0.704 | 0.707 | 0.672 | 0.657 | 0.558 | 0.483 | 0.379 | 0.384 | 0.528
NCI-H1734 | 0.597 | 0.497 | 0.526 | 0.576 | 0.531 | 0.573 | 0.505 | 0.463 | 0.467 | 0.449 | 0.598 | 0.623 | 0.522 | 0.574 | 0.423 | 0.49 | 0.403 | 0.408 | 0.43 | 0.45
NCI-H1755 | 0.468 | 0.446 | 0.395 | 0.461 | 0.412 | 0.502 | 0.49 | 0.405 | 0.448 | 0.428 | 0.861 | 0.895 | 0.88 | 0.854 | 0.784 | 0.512 | 0.451 | 0.459 | 0.46 | 0.384
NCI-H1792 | 0.68 | 0.712 | 0.537 | 0.58 | 0.567 | 0.829 | 0.607 | 0.743 | 0.608 | 0.72 | 0.72 | 0.548 | 0.412 | 0.289 | 0.265 | 0.289 | 0.272 | 0.35 | 0.3 | 0.246
NCI-H1793 | 0.646 | 0.394 | 0.299 | 0.592 | 0.292 | 0.441 | 0.373 | 0.356 | 0.431 | 0.405 | 0.802 | 0.909 | 0.82 | 0.675 | 1.04 | 0.224 | 0.37 | 0.36 | 0.502 | 0.343
NCI-H1915 | 0.762 | 0.739 | 0.663 | 0.755 | 0.676 | 0.3 | 0.3 | 0.34 | 0.347 | 0.328 | 0.253 | 0.257 | 0.225 | 0.22 | 0.21 | 0.937 | 0.874 | 1.04 | 0.941 | 0.927
NCI-H1944 | 0.476 | 0.46 | 0.441 | 0.547 | 0.461 | 0.236 | 0.213 | 0.229 | 0.24 | 0.297 | 0.388 | 0.469 | 0.369 | 0.367 | 0.366 | 0.356 | 0.349 | 0.367 | 0.36 | 0.391
NCI-H1975 | 0.775 | 0.703 | 0.682 | 0.784 | 0.64 | 0.389 | 0.366 | 0.375 | 0.355 | 0.291 | 0.961 | 0.79 | 0.735 | 0.747 | 0.747 | 0.328 | 0.301 | 0.321 | 0.291 | 0.274
NCI-H1993 | 0.836 | 0.754 | 0.702 | 0.9 | 0.795 | 0.701 | 0.598 | 0.375 | 0.703 | 0.646 | 0.854 | 1.22 | 0.993 | 0.923 | 0.706 | 0.841 | 0.795 | 0.828 | 0.902 | 0.782
NCI-H2085 | 1.03 | 0.973 | 0.927 | 0.907 | 0.957 | 0.248 | 0.234 | 0.285 | 0.287 | 0.217 | 0.817 | 0.844 | 0.761 | 0.786 | 0.687 | 0.484 | 0.358 | 0.369 | 0.485 | 0.49
NCI-H2087 | 1.52 | 1.31 | 1.18 | 1.41 | 1.43 | 1.14 | 0.707 | 0.856 | 0.78 | 0.908 | 0.69 | 0.674 | 0.578 | 0.553 | 0.328 | 1.08 | 0.745 | 0.815 | 0.894 | 0.844
